The source of these data is patent US20230000852A1, “Treatment of Dermal Cytokine Storm Syndromes” (Bridge Pharma, Inc., priority 2021, published 2023).

Where a name gives a salt, the structure may show the parent alone.

In data set [1] the test system is IL31-induced (SC) pruritus. The data set is described as follows: IL-31-induced pruritus in mice. The class given is in vivo. The note with it: for Pruritic Bouts Mean ± SEM: 10 mg/kg oral 60 minutes before murine IL31 1.0 μg/30 gram SC, counted for 120 min, N 8; for Protection: 10 mg/kg oral 60 minutes before murine IL31 SC, vs vehicle. Here is the method:
To determine if NK inhibits IL31-induced pruritus in mice. Studies have now been performed, using murine IL31 as a pruritogen. Mice were dosed orally with a test article exactly 60 minutes before murine IL31 at a dose of 1.0 μg/30 gram body weight was injected subcutaneously into a previously depilated area on the rostral part of the back of mice. IL31 was dissolved in phosphate buffered saline (PBS) with 0.1% bovine serum albumin (BSA). The injected volume was 0.1 ml/mouse. The bouts of scratching were counted for 120 min, starting 30 min after the injection of IL31. The bouts of scratching were counted by trained laboratory personnel who were unaware of the pretreatment of the animals. Oclacitinib (Apoquel®) is a Janus kinase inhibitor that is the worldwide market leader for oral treatment of atopic dermatitis in dogs.

The test system of data set [2] is shaved skin of Gottingen minipigs. In words: Skin irritation study in Göttingen mini pigs. It counts as in vivo, Göttingen minipigs. The note with it: dermal once daily for four consecutive days. Here is the method: To assess possible skin irritation following repeated dermal application of racemic norketotifen as a hydrogen fumarate salt (NK-HF) to Gottingen Minipigs.
Standard creamy polyethylene-glycol (PEG400/PEG4000; herein called PEG) formulations containing 0% (vehicle control), 5% or 10% of RS-norketotifen hydrogen fumarate (NK-HF) were prepared and applied once daily for four consecutive days to three marked areas (3 inches×3 inches) of the shaved skin of Gottingen minipigs pigs (2M+2F, 7-8 months; 9.7-11.6 kg). The volumes used for each application were 3.5 mL). Four animals were used in this study. The number of animals was intended to satisfy regulatory guidelines, to meet general scientific principles and to meet Bridge Pharma's animal-sparing commitments. The vehicle and the test articles were applied once daily for four consecutive days, and erythema (redness), edema (swelling) and eschar (scab) were assessed by the Study Director, who personally assessed and scored the appearance of the skin before the daily cream applications and four hours thereafter on Days 1 through 4. Additional inspections and scorings were performed on Day 5, twenty-four hours after the last (Day 4) applications of the vehicle and test articles.

The nature of data set [3]: Dermal and plasma concentrations of NK after oral dosing to dogs. It counts as in vivo. Particulars: for AUC∞ Plasma / MRT Plasma / T1/2 Plasma / AUC∞ Skin / MRT Skin / T1/2 Skin: oral S-NK 8.0 mg/kg/day for 28 days, dogs (N = 5). Here is the method:
The purpose was to determine drug concentrations and calculate pharmacokinetics in the skin and plasma of dogs during and following daily oral administration of S-NK-HF (the S-isomer of norketotifen hydrogen fumarate) for four weeks.
Five male beagle dogs, weighing 11.2-13.9 kg (2-4 years old) were included in the study. All animals were administered p.o. doses of the test article 8.0 mg/kg/day as a hydrogen fumarate salt, equal to 5.6 mg/kg/day of the free base. A single isomer of NK was used, since an objective of this study was also to assess the racemization of the NK isomers. The animals were dosed once daily for four weeks followed by daily observations and tissue sampling for an additional two-week washout period.
Multiple plasma samples and skin biopsies were taken from each dog on Day 1 and Day 28 of drug administration. The plasma and skin samplings were performed at pre-dose, and at 2, 6, 12, and 24 hours post-dose. Plasma and skin samples were also taken intermittently at predetermined intervals during the 28-days dosing period and up to the last day of the study, which was Day 42. Blood samples were taken from v. cephalica antebrachii. Skin biopsies were taken from the area between the mid ventral to lateral abdominal areas, using a 6 mm skin biopsy punch. Subcutaneous fat deposits were carefully trimmed from the skin samples and the skin samples were then weighed. All plasma and skin samples were analyzed using LC/MS/MS methodology.

The next data set concerns INF-γ. The data set is described as follows: PHA-induced INF-γ release from human leucocytes (buffy coats). The class given is cell-based. Particulars: Leucocyte, 10 uM, 30 min pre-incubation, PHA 5 μg/ml 16 hours. Here is the method: (§1) The objective of this study was to assess the ability of norketotifen to inhibit cytokine release from stimulated human leucocytes.
(§2) The study was conducted in two phases. The first phase included optimization of the test methodology and including dose-range finding studies, using buffy coats from 3 human donors, stimulated with phytohemagglutinin (PHA). Following optimization of the test conditions, a final protocol was issued. In the ensuing Main Study, white blood cells (buffy coats) from 5 healthy human donors were stimulated with PHA, 5 μg/ml. The concentrations of the test article and the duration of exposure were optimized to obtain acceptable dose-response ratios. Thus, the inhibitory effects of three concentrations of NK and one concentration of ketotifen were evaluated in the Main Study. The buffy coats containing white blood cells from 5 male human donors were resuspended in assay media and were pre-incubated for 30 min with either vehicle/saline, ketotifen 4.3 μg/ml (10 μM) and norketotifen 0.4 μg/ml, 4.1 μg/ml and 41 μg/ml (1.0; 10 and 100 μM). Following these preincubations, the white blood cells were stimulated for 16 hours with PHA, 5 μg/ml. The cell system supernatants were then harvested and stored frozen pending analyses.
(§3) The concentration of the test articles had to be high in this ex vivo study since the test kit used a high concentration of the agonist PHA (5 μg/ml) and a long exposure time (16 hrs).

The test system of a further data set is TNFα. In words: PHA-induced TNFα release from human leucocytes (buffy coats). The class given is cell-based. The note with it: Leucocyte, 10 uM, 30 min pre-incubation, PHA 5 μg/ml 16 hours. Here is the method: as §1, §2, §3
The test system of the next data set is IL-8. In words: PHA-induced IL-8 release from human leucocytes (buffy coats). It counts as cell-based. Particulars: Leucocyte, 10 uM, 30 min pre-incubation, PHA 5 μg/ml 16 hours. Here is the method: as §1, §2, §3
A further data set concerns IL-2. In words: PHA-induced IL-2 release from human leucocytes (buffy coats). The class given is cell-based. The note with it: Leucocyte, 10 uM, 30 min pre-incubation, PHA 5 μg/ml 16 hours. Here is the method: as §1, §2, §3
The next data set concerns IL-6. In words: PHA-induced IL-6 release from human leucocytes (buffy coats). The class given is cell-based. Particulars: Leucocyte, 10 uM, 30 min pre-incubation, PHA 5 μg/ml 16 hours. Here is the method: as §1, §2, §3
A further data set deals with IL-10. In words: PHA-induced IL-10 release from human leucocytes (buffy coats). It counts as cell-based. The note with it: Leucocyte, 10 uM, 30 min pre-incubation, PHA 5 μg/ml 16 hours. Here is the method: as §1, §2, §3
In another data set the test system is IL-4. In words: PHA-induced IL-4 release from human leucocytes (buffy coats). The class given is cell-based. The note with it: Leucocyte, 10 uM, 30 min pre-incubation, PHA 5 μg/ml 16 hours. Here is the method:
as §1, §2, §3

A further data set deals with IL-13. The data set is described as follows: PHA-induced IL-13 release from human leucocytes (buffy coats). Particulars: Leucocyte, 10 uM, 30 min pre-incubation, PHA 5 μg/ml 16 hours. The class given is cell-based. As for the experimental part: as §1, §2, §3
For another data set, the system named is IL-1β. In words: PHA-induced IL-1β release from human leucocytes (buffy coats). It counts as cell-based. Particulars: Leucocyte, 10 uM, 30 min pre-incubation, PHA 5 μg/ml 16 hours. As for the experimental part: as §1, §2, §3
Data set [4] relates to human leucocytes (buffy coats). In words: Cytokine and chemokine release from stimulated human leucocytes, overall. The class given is cell-based. The note with it: PHA 5 μg/ml, 16 hours. Here is the method: as §1
as §2, with “analyses. […]” for “analyses.”

In the case of `O=C(O)C=CC(=O)O.O=C1Cc2ccccc2C(=C2CCNCC2)c2ccsc21` [NK-HF, RS-norketotifen hydrogen fumarate], the “Pruritic Bouts Mean ± SEM” value in [1] came to 93 ± 10. This molecule showed a Protection in data set [1] of 54%. Further, the “Skin irritation (erythema, edema, eschar)” value in data set [2] (5% in creamy PEG formulation) and in data set [2] (10% in creamy PEG formulation) was “did not induce any irritation” each time.
For `O=C(O)/C=C/C(=O)O.O=C1Cc2ccccc2C(=C2CCNCC2)c2ccsc21` [R-NK, R-norketotifen], in data set [3], the “AUC∞ Plasma” value is given as 1658 ng*hr/mL or g, the “MRT Plasma” value turned out to be 14.1 h, the “T1/2 Plasma” value stood at 7.7 h and the “AUC∞ Skin” value is reported as 20376 ng*hr/mL or g. For the same molecule, in data set [3], the “MRT Skin” value came to 159.1 h and the “T1/2 Skin” value amounted to 157.0 h.
Take `O=C1Cc2ccccc2C(=C2CCNCC2)c2ccsc21` [S-NK, S-norketotifen]: the “Racemization after oral administration of the single isomer” value in data set [3] (dogs, oral) is listed as “RS-norketotifen was rapidly formed”. In data set [3], the “AUC∞ Plasma” value is 1627 ng*hr/mL or g, the “MRT Plasma” value came out at 11.3 h, the “T1/2 Plasma” value worked out at 10.9 h and the “AUC∞ Skin” value is on record as 25710 ng*hr/mL or g. In [3], the “MRT Skin” value is 159.0 h and the “T1/2 Skin” value was 162.7 h.
As to `CNS(=O)(=O)C[C@H]1CC[C@H](N(C)c2ncnc3[nH]ccc23)CC1` [Oclacitinib maleate, Oclacitinib, reference compound], in [1], the “Pruritic Bouts Mean ± SEM” value turned out to be 116 ± 29 and the Protection is 43%.
The inhibition is the change of the read-out against control, counted positive when it falls. Read a low inhibition as a response near the control. With `CN1CCC(=C2c3ccccc3CC(=O)c3sccc32)CC1` [Ketotifen, ketotifen, reference compound], the inhibition at 10 µM worked out at 0% in the data set with INF-γ; 0% in the data set with TNFα; 20% in the data set with IL-8; 0% with IL-2; 0% in the data set on IL-6; 0% in the data set with IL-10. The inhibition at 10 µM in the data set with IL-4, with IL-13 and in the data set on IL-1β was 0% throughout. For the same molecule, the “Inhibition of release of cytokines and chemokines from human white blood cells (in words)” value in [4] is “No statistically significant inhibition”.
